“And” between values parts separate entries of the source, which are not always exact repeats. Equal entries are not always repeated. Inconclusive results and toxic doses are left out.
Test system: L1210 leukemia ip in BDF1 mice, survival T/C
Assay: NCI In Vivo Anticancer Drug Screen. Data for tumor model L1210 Leukemia (intraperitoneal) in B6D2F1 (BDF1) mice
Details: endpoint: mean survival time, higher = longer survival
How it was run: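 Tumor cells were implanted, animals were treated, and survival was followed. The result divides the treated measurement by the vehicle-control measurement.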

[1] = dose: 12.5 mg/kg/injection, schedule: Q01DX009 (ip), vehicle: Klucel (hydroxypropylcellulose) (HPC)
[2] = dose: 25.0 mg/kg/injection, schedule: Q01DX009 (ip), vehicle: Klucel (hydroxypropylcellulose) (HPC)
[3] = dose: 50.0 mg/kg/injection, schedule: Q01DX009 (ip), vehicle: Klucel (hydroxypropylcellulose) (HPC)
[4] = dose: 100.0 mg/kg/injection, schedule: Q01DX009 (ip), vehicle: Klucel (hydroxypropylcellulose) (HPC)
[5] = dose: 200.0 mg/kg/injection, schedule: Q01DX001 (ip), vehicle: Klucel (hydroxypropylcellulose) (HPC)
[6] = dose: 200.0 mg/kg/injection, schedule: Q01DX009 (ip), vehicle: Klucel (hydroxypropylcellulose) (HPC)
[7] = dose: 200.0 mg/kg/injection, schedule: Q04DX003 (ip), vehicle: Klucel (hydroxypropylcellulose) (HPC)
[8] = dose: 400.0 mg/kg/injection, schedule: Q01DX001 (ip), vehicle: Klucel (hydroxypropylcellulose) (HPC)
[9] = dose: 400.0 mg/kg/injection, schedule: Q01DX009 (ip), vehicle: Klucel (hydroxypropylcellulose) (HPC)
[10] = dose: 400.0 mg/kg/injection, schedule: Q04DX003 (ip), vehicle: Klucel (hydroxypropylcellulose) (HPC)
[11] = dose: 100.0 mg/kg/injection, schedule: Q04DX003 (ip), vehicle: saline with Tween-80
[12] = dose: 200.0 mg/kg/injection, schedule: Q04DX003 (ip), vehicle: saline with Tween-80
[13] = dose: 400.0 mg/kg/injection, schedule: Q04DX003 (ip), vehicle: saline with Tween-80
[14] = dose: 100.0 mg/kg/injection, schedule: Q04DX002 (ip), vehicle: Klucel (hydroxypropylcellulose) (HPC)
[15] = dose: 200.0 mg/kg/injection, schedule: Q04DX002 (ip), vehicle: Klucel (hydroxypropylcellulose) (HPC)
[16] = dose: 400.0 mg/kg/injection, schedule: Q04DX002 (ip), vehicle: Klucel (hydroxypropylcellulose) (HPC)
[17] = dose: 100.0 mg/kg/injection, schedule: Q04DX003 (ip), vehicle: Klucel (hydroxypropylcellulose) (HPC)
[18] = dose: 100.0 mg/kg/injection, schedule: Q04DX002 (ip), vehicle: saline
[19] = dose: 200.0 mg/kg/injection, schedule: Q04DX002 (ip), vehicle: saline

With O=NN(CCCl)C(=O)NC1c2cc(Cl)ccc2-c2c(Cl)cc(Cl)cc21 (stereo not drawn) the T/C (dose: 6.6 mg/kg/injection, schedule: Q04DX003 (ip), vehicle: Klucel (hydroxypropylcellulose) (HPC)) was 103 % of control, the T/C (dose: 9.9 mg/kg/injection, schedule: Q04DX003 (ip), vehicle: Klucel (hydroxypropylcellulose) (HPC)) was 116 % of control and the T/C [1] was 115 % of control. The T/C (dose: 20.0 mg/kg/injection, schedule: Q04DX003 (ip), vehicle: Klucel (hydroxypropylcellulose) (HPC)) was 102 % of control, the T/C [2] was 124 % of control and the T/C (dose: 40.0 mg/kg/injection, schedule: Q04DX003 (ip), vehicle: Klucel (hydroxypropylcellulose) (HPC)) was 119 % of control. For the same compound, the T/C [3] was 232 % of control, the T/C [4] was 252 % of control and the T/C (dose: 115.0 mg/kg/injection, schedule: Q04DX003 (ip), vehicle: Klucel (hydroxypropylcellulose) (HPC)) was 154 % of control. The T/C [5] was 153 % of control, the T/C [6] was 267 % of control and the T/C [7] was 174 % of control. The T/C [8] was 170 % of control, the T/C [9] was 273 % of control and the T/C [10] was 157 % of control and 261 % of control.

COc1cc(-c2ccc(NC(=O)CC(C)=O)c(OC)c2)ccc1NC(=O)CC(C)=O was tested, and the T/C (dose: 100.0 mg/kg/injection, schedule: Q01DX009 (ip), vehicle: saline with Tween-80) was 94 % of control, the T/C [11] was 92 % of control and the T/C (dose: 200.0 mg/kg/injection, schedule: Q01DX009 (ip), vehicle: saline with Tween-80) was 101 % of control. The T/C [12] was 91 % of control, the T/C (dose: 400.0 mg/kg/injection, schedule: Q01DX009 (ip), vehicle: saline with Tween-80) was 99 % of control and the T/C [13] was 89 % of control.

For CC(C)C(C)C(N)C(=O)O (stereo not drawn), the T/C (dose: 100.0 mg/kg/injection, schedule: Q01DX001 (ip), vehicle: other) was 101 % of control, the T/C (dose: 200.0 mg/kg/injection, schedule: Q01DX001 (ip), vehicle: other) was 95 % of control and the T/C (dose: 400.0 mg/kg/injection, schedule: Q01DX001 (ip), vehicle: other) was 106 % of control.

O=C(O)c1cccnc1C(=O)O.[Cu+2] was tested, and the T/C (dose: 3.12 mg/kg/injection, schedule: Q01DX009 (ip), vehicle: Klucel (hydroxypropylcellulose) (HPC)) was 107 % of control, the T/C (dose: 6.25 mg/kg/injection, schedule: Q01DX009 (ip), vehicle: Klucel (hydroxypropylcellulose) (HPC)) was 94 % of control and the T/C (dose: 6.25 mg/kg/injection, schedule: Q04DX003 (ip), vehicle: Klucel (hydroxypropylcellulose) (HPC)) was 94 % of control and 95 % of control. For the same compound, the T/C (dose: 12.5 mg/kg/injection, schedule: Q01DX001 (ip), vehicle: other) was 108 % of control, the T/C [1] was 92 % of control and the T/C (dose: 12.5 mg/kg/injection, schedule: Q04DX003 (ip), vehicle: Klucel (hydroxypropylcellulose) (HPC)) was 101 % of control and 97 % of control. For the same compound, the T/C (dose: 25.0 mg/kg/injection, schedule: Q01DX001 (ip), vehicle: other) was 89 % of control and the T/C (dose: 25.0 mg/kg/injection, schedule: Q04DX003 (ip), vehicle: Klucel (hydroxypropylcellulose) (HPC)) was 95 % of control.

With Cc1cc(C)c(CCc2c(C)cc(C)cc2C)c(C)c1 the T/C [12] was 104 % of control and the T/C [13] was 102 % of control.

In the case of [Cl][Pd][Cl].[NH-]C1CCCC1.[NH-]C1CCCC1, the T/C (dose: 6.25 mg/kg/injection, schedule: Q04DX002 (ip), vehicle: saline) is reported as 102 % of control, the T/C (dose: 12.5 mg/kg/injection, schedule: Q04DX002 (ip), vehicle: saline) is reported as 105 % of control and the T/C (dose: 25.0 mg/kg/injection, schedule: Q04DX002 (ip), vehicle: saline) is reported as 97 % of control.

With COC(=O)C(=O)CC(=O)c1ccc([N+](=O)[O-])cc1 the T/C [14] was 95 % of control, the T/C [15] was 95 % of control and the T/C [16] was 103 % of control.

In the case of CON(C)S(=O)c1ccc([N+](=O)[O-])cc1 (stereo not drawn), the T/C [17] is reported as 100 % of control, the T/C [7] is reported as 97 % of control and the T/C [10] is reported as 94 % of control.

In the case of COC(=O)CNCc1ccccc1, the T/C (dose: 100.0 mg/kg/injection, schedule: Q01DX009 (ip), vehicle: water) is reported as 98 % of control, the T/C (dose: 200.0 mg/kg/injection, schedule: Q01DX009 (ip), vehicle: water) is reported as 115 % of control and the T/C (dose: 400.0 mg/kg/injection, schedule: Q01DX009 (ip), vehicle: water) is reported as 100 % of control.

CCCCNC(C)[C@]1(O)Cc2c(O)c3c(c(O)c2[C@@H](OC2CC(N)C(O)C(C)O2)C1)C(=O)c1c(OC)cccc1C3=O (stereo partly drawn) was tested, and the T/C (dose: 1.56 mg/kg/injection, schedule: Q01DX009 (ip), vehicle: water) was 104 % of control, the T/C (dose: 3.13 mg/kg/injection, schedule: Q01DX009 (ip), vehicle: water) was 119 % of control and the T/C (dose: 6.25 mg/kg/injection, schedule: Q01DX009 (ip), vehicle: water) was 117 % of control.

O=c1cc(-c2ccc(S(=O)(=O)F)cc2)[nH]c2ccc([N+](=O)[O-])cc12 was tested, and the T/C (dose: 100.0 mg/kg/injection, schedule: Q01DX009 (ip), vehicle: saline) was 101 % of control, the T/C (dose: 200.0 mg/kg/injection, schedule: Q01DX009 (ip), vehicle: saline) was 101 % of control and the T/C (dose: 400.0 mg/kg/injection, schedule: Q01DX009 (ip), vehicle: saline) was 100 % of control.

With CC(=O)N(C(C)=O)C1=C(c2ccccc2)C(=O)c2ccccc21 the T/C [4] was 98 % of control, the T/C [17] was 96 % of control and the T/C [6] was 97 % of control. For the same compound, the T/C [7] was 105 % of control, the T/C [9] was 94 % of control and the T/C [10] was 107 % of control.

Cc1ccc(SCCCN)cc1 was tested, and the T/C (dose: 75.0 mg/kg/injection, schedule: Q01DX001 (ip), vehicle: saline) was 100 % of control and the T/C (dose: 150.0 mg/kg/injection, schedule: Q01DX001 (ip), vehicle: saline) was 94 % of control.

O=C(O)CN1C(=O)C2C3C=CC(C3)C2C1=O (stereo not drawn) was tested, and the T/C [11] was 97 % of control, the T/C [12] was 94 % of control and the T/C [13] was 94 % of control.

CCN(CC)CCOC(=O)C1CC1(c1ccccc1)c1ccccc1 (stereo not drawn) was tested, and the T/C [2] was 98 % of control, the T/C [3] was 87 % of control and the T/C [4] was 95 % of control and 98 % of control.

Cc1ccc(C(=O)C=Nc2ccc(C(=O)O)cc2)cc1 was tested, and the T/C [17] was 97 % of control and the T/C [7] was 97 % of control.

In the case of Oc1cc(O)c(CN2CCCCC2)cc1CN1CCCCC1, the T/C (dose: 100.0 mg/kg/injection, schedule: Q01DX001 (ip), vehicle: saline) is reported as 87 % of control.

With OCN(CO)c1ccc2c(c1)Cc1cc(F)ccc1-2 the T/C (dose: 100.0 mg/kg/injection, schedule: Q04DX003 (ip), vehicle: acetone) was 107 % of control and the T/C (dose: 200.0 mg/kg/injection, schedule: Q04DX003 (ip), vehicle: acetone) was 98 % of control.

In the case of c1ccc(CCN2CCCCC2)nc1, the T/C (dose: 1.56 mg/kg/injection, schedule: Q01DX009 (ip), vehicle: saline) is reported as 94 % of control, the T/C (dose: 3.13 mg/kg/injection, schedule: Q01DX009 (ip), vehicle: saline) is reported as 93 % of control and the T/C (dose: 6.25 mg/kg/injection, schedule: Q01DX009 (ip), vehicle: saline) is reported as 89 % of control.

With C/C(=C/CC1CCC2C3=CCC4CC(O)CCC4(C)C3CCC12C)C(C)C(C)C (stereo not drawn) the T/C (dose: 100.0 mg/kg/injection, schedule: Q01DX001 (ip), vehicle: Klucel (hydroxypropylcellulose) (HPC)) was 102 % of control, the T/C [5] was 98 % of control and the T/C [8] was 88 % of control.

In the case of CCCCCCCCCCCCCCCCCC[Se][Se]CCCCCCCCCCCCCCCCCC, the T/C (dose: 6.25 mg/kg/injection, schedule: Q01DX009 (ip), vehicle: saline with Tween-80) is reported as 94 % of control, the T/C (dose: 12.5 mg/kg/injection, schedule: Q01DX009 (ip), vehicle: saline with Tween-80) is reported as 93 % of control and the T/C (dose: 25.0 mg/kg/injection, schedule: Q01DX009 (ip), vehicle: saline with Tween-80) is reported as 98 % of control and 89 % of control. For the same compound, the T/C [11] was 87 % of control and the T/C [13] was 86 % of control.

In the case of CC1=Nc2ccccc2NC(C)(C)C1, the T/C [18] is reported as 102 % of control, the T/C [17] is reported as 100 % of control and the T/C [19] is reported as 102 % of control. For the same compound, the T/C [7] was 98 % of control and the T/C [10] was 98 % of control.

With Cc1ccc(S(=O)(=O)N=S(CCCl)CCCl)cc1 the T/C [18] was 92 % of control, the T/C [19] was 99 % of control and the T/C (dose: 400.0 mg/kg/injection, schedule: Q04DX002 (ip), vehicle: saline) was 101 % of control.

N=Nc1c2ccccc2c2nc3c(N)[nH]nc(N)c3nc12 was tested, and the T/C [14] was 107 % of control, the T/C [15] was 103 % of control and the T/C [16] was 100 % of control.

From PubChem BioAssay AID248 (DTP/NCI, 2004)
